Assay results published in PubChem BioAssay (NCI).
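48-hour exposure; five concentrations; linearly interpolated endpoints. TGI marks complete inhibition of growth.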

Columns and labels:
Experiment in all cases: inhibition of tumour cell growth, NCI panel, 48 h
SF-539 CNS = test system: SF-539 CNS
ACHN renal = test system: ACHN renal
NCI-H522 lung = test system: NCI-H522 lung
SK-MEL-2 melanoma = test system: SK-MEL-2 melanoma
KM12 colon = test system: KM12 colon
HL-60(TB) leukemia = test system: HL-60(TB) leukemia
SN12C renal = test system: SN12C renal
U251 CNS = test system: U251 CNS
M14 melanoma = test system: M14 melanoma
MALME-3M melanoma = test system: MALME-3M melanoma

SMILES | TGI (SF-539 CNS) [µM] | TGI (ACHN renal) [µM] | TGI (NCI-H522 lung) [µM] | TGI (SK-MEL-2 melanoma) [µM] | TGI (KM12 colon) [µM] | TGI (HL-60(TB) leukemia) [µM] | TGI (SN12C renal) [µM] | TGI (U251 CNS) [µM] | TGI (M14 melanoma) [µM] | TGI (MALME-3M melanoma) [µM]
O=C1CCSc2nc(-c3ccc4c(c3)OCO4)nn21 | > 10 | > 10 | > 10 | > 10 | > 10 | > 10 | > 10 | > 10 | > 10 | > 10
Cc1ccc(S(=O)(=O)ON2C(=O)c3c(N)c(C#N)c(-c4ccccc4)c(-c4ccccc4)c3C2=O)cc1 | 58.2 | 31.1 | 33.2 | 54.2 | > 100 | 11.7 | 40 | 30.6 | 29.5 | 45.8
COc1ccccc1N1C(=O)CSC1c1cc(OC)c(OC)c(OC)c1 (stereo not given) | > 100 | > 100 | > 76.8 | > 100 | > 100 | 97.7 | > 100 | > 100 | > 100 | > 100
C=CC(OC(=O)C(C)C)c1ccc(OC(=O)C(C)C)cc1 (stereo not given) | 30.7 | 28 | 3.56 | 24 | 5.16 | 21 | 30 | 15.3 | 21.4 | 22
COC(=O)c1ccc(C)cc1C1CN=NC12Cc1cc(C)ccc1C2=O (stereo not given) | 36.2 | > 100 | 26.8 | 45.8 | 44.1 | 16.3 | > 87.1 | > 70.6 | 36.9 | > 100
COC(=O)CC(CNC(=O)OCc1ccccc1)OCc1ccc(OC)cc1 (stereo not given) | > 100 | > 100 | > 100 | > 100 | > 100 | > 100 | > 100 | > 100 | > 100 | > 100
O=C(NCCc1ccccc1)c1cc(/C=C/c2cc(O)ccc2O)ccc1O | 5.94 | 5.59 | 4.32 | 11.8 | 24.6 | 9.65 | 19 | 5.28 | 15.9 | 5.07
O=C1Nc2ccccc2/C1=C\c1c(-c2ccccc2)nc2n1CCS2 | 39.1 | > 100 | 51.7 | 28.5 | 37.5 | 42.3 | 58.5 | 45.3 | 87.9 | 74.1
O=C1CCN2C(=N1)Sc1ccccc12 | > 100 | > 100 | > 100 | > 100 | > 100 | > 100 | > 100 | > 100 | > 100 | > 100
CC(=O)O[C@H]1CC[C@@]2(C)C(=CC[C@@H]3[C@@H]2CC[C@](C)(c2nnc(C)o2)[C@H]3CC#N)C1 | > 100 | > 100 | > 100 | > 100 | > 100 | > 100 | > 100 | > 100 | > 100 | > 100
O=C(c1ccccc1)C(Nc1ccc2ccccc2c1)c1ccccc1 (stereo not given) | > 100 | > 100 | > 67.3 | 41.8 | > 81.5 | 36.4 | > 100 | > 100 | > 100 | > 94.8
Cc1ccc(SCC(CF)OC(C)n2cnc3c(Cl)nc(N)nc32)cc1 (stereo not given) | > 100 | > 100 | 36.1 | > 100 | > 100 | 86.3 | > 100 | > 100 | > 100 | > 100
O=C(CCc1ccc(O)c(O)c1)NCCc1cc(O)c(O)c(O)c1 | > 100 | > 100 | 40.2 | 50.6 | > 100 | > 100 | 31.9 | 31.7 | 48.1 | > 100
Cc1cccc2c1c(=O)c1c(O)cc3c(c1n2C)C=CC(C)(C)O3 | > 100 | > 100 | > 100 | > 100 | > 100 | > 100 | > 100 | > 100 | > 100 | > 100
O=C1CCCCC1C(O)(C(F)(F)F)C(F)(F)Cl (stereo not given) | > 10 | > 10 | > 10 | > 10 | > 10 | > 10 | > 10 | > 10 | > 10 | > 10
CCCCCCCC(CC(=O)NC(CO)C(=O)NC(CO)CC(C)C)OC(=O)CC(CCCCCCC)OC(=O)CC(CCCCCCC)OC1OC(C)C(O)C(OC2OC(C)C(O)C(O)C2O)C1O (stereo not given) | 24.7 | 25.5 | 29.5 | 13.3 | 26.3 | 10.5 | 28.7 | 24.7 | 17.5 | 24
CCN(CC)C(=S)N/N=C/c1cc(OC)ccc1O | 36 | > 100 | > 100 | > 100 | > 100 | 7.44 | 90.6 | > 100 | 16.6 | > 100
CC1(C)SCc2nc3ccccc3n21 | > 100 | > 100 | > 100 | > 100 | > 100 | > 100 | > 100 | > 100 | > 100 | > 100
